Results published in the supplement of paper PMC3974653.
Structures can show the parent of a compound that is named as a salt.

System: MTT (mouse pheochromocytoma)
Test: IC50 of cell viability (ATP content)
Conditions: (24 or 48 h)
Outline: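 Cells of the MTT mouse pheochromocytoma line, 5 µl per well at 200,000 cells/ml, were grown overnight at 37°C, 5% CO2 in white 1536-well plates with DMEM, 5% FBS and 1% horse serum. Pintool transfer then delivered 23 nl of library compound in DMSO, giving 8 final concentrations from 0.5 nM to 46 µM, for an exposure of 24 or 48 hrs. Luminescence from CellTiter-Glo was read after 15 minutes and referenced to positive-control wells (100%) and DMSO wells (0%). IC50 was calculated with a four-parameter logistic fit.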

Structure (SMILES)	IC50 of cell viability
C[C@@H](Cc1ccc(O)cc1)NC[C@@H](O)c1cc(O)cc(O)c1 [Fenoterol hydrobromide]	> 46 µM
O=C(CC1NCCC[C@H]1O)Cn1cnc2cc(Br)c(Cl)cc2c1=O (some centres undefined) [HALOFUGINONE LACTATE]	> 46 µM
Nc1c(CC(=O)[O-])cccc1C(=O)c1ccc(Br)cc1 [BROMFENAC SODIUM]	> 46 µM
CCN(CC)CCOc1ccc2nc(N(C)C)sc2c1 [DIMAZOLE DIHYDROCHLORIDE]	> 46 µM
NC(=O)CC[C@@H](N)C(=O)O [D-GLUTAMINE]	> 46 µM
O=C(O)Cc1cccc2ccccc12 [1-Naphthaleneacetic acid]	> 46 µM
[O-][S+](c1cc(Cl)cc(Cl)c1O)c1cc(Cl)cc(Cl)c1O [Bithionoloxide]	> 46 µM
[H][C@]12C[C@@]3([H])C4=CCO[C@@H]5CC(=O)N6C([C@@]35[H])[C@]1(CC[N@@]2C4)C7=C6C=CC=C7 (some centres undefined) [STRYCHNINE]	> 46 µM
CCOP(=O)(NC(C)C)Oc1ccc(SC)c(C)c1 (centres undefined) [Fenamiphos]	> 46 µM
Nc1ccncc1 [4-AMINOPYRIDINE]	> 46 µM
CCC(C)C1NC(=O)C(CCNCS(=O)(=O)[O-])NC(=O)C(NC(=O)C(CCNCS(=O)(=O)[O-])NC(=O)C(NC(=O)C(CCNCS(=O)(=O)[O-])NC(=O)CCCCC(C)C)C(C)O)CCNC(=O)C(C(C)O)NC(=O)C(CCNCS(=O)(=O)[O-])NC(=O)C(CCNCS(=O)(=O)[O-])NC(=O)C(C(C)CC)NC1=O.[Na+].[Na+].[Na+].[Na+].[Na+] (centres undefined) [COLISTIMETHATE SODIUM]	> 46 µM
C[C@H]1C[C@H]2[C@@H]3CCC4=CC(=O)C=C[C@]4(C)[C@@]3(F)[C@@H](O)C[C@]2(C)[C@@]1(O)C(=O)CO [Betamethasone]	> 46 µM
CCN(CC)C(=O)/C(Cl)=C(\C)OP(=O)(OC)OC [PHOSPHAMIDON]	> 46 µM
CNC1(c2ccccc2Cl)CCCCC1=O (stereo in doubt) [(R)-(+)-Ketamine]	> 46 µM
CNCCc1ccccn1.C[S+](=O)([O-])O [Betahistine mesylate]	> 46 µM
CCN[C@@H](C)Cc1ccccc1 [(+)-N-Ethylamphetamine]	> 46 µM
CCC(C)C(=O)OC1CC/C=C2/C=C\C(C)C(CCC3CC(O)CC(=O)O3)[C@H]12 (some centres undefined) [COMPACTIN]	> 46 µM
COc1cc(CC(C)N)cc(OC)c1OC (centres undefined) [(?)-3,4,5-Trimethoxyamphetamine]	> 46 µM
O=C(O)CCCc1ccc(N(CCCl)CCCl)cc1 [CHLORAMBUCIL]	> 46 µM
CC(C)=CC1C(C(=O)OCN2C(=O)\C3=C(\CCCC3)C2=O)C1(C)C (centres undefined) [TETRAMETHRINUM]	> 46 µM
C[C@]12C=CC(=O)C=C1CC[C@@H]1[C@@H]2CC[C@@]2(C)[C@H]1CC[C@]2(C)O [Metandienona]	> 46 µM
COc1cc(/C=C/C(=O)N2CCN(CC(=O)N3CCCC3)CC2)cc(OC)c1OC [CINEPAZIDE MALEATE]	> 46 µM
C=C[C@H]1CN2CCC1C[C@H]2[C@H](O)c1ccnc2ccc(OC)cc12.C=C[C@H]1CN2CCC1C[C@H]2[C@H](O)c1ccnc2ccc(OC)cc12.O.O.O=[S+]([O-])(O)O (some centres undefined) [Quinine hemisulfate salt monohydrate]	> 46 µM
CC(CCC(=O)O)C1CCC2C3C(=O)C[C@@H]4CC(=O)CC[C@@]4(C)C3CC(=O)[C@]12C (some centres undefined) [DEHYDROCHOLIC ACID]	> 46 µM
CN1CC\C(CC1)=C2/C3=CC=CC=C3CCC4=CC=CN=C24 [Azatadine]	> 46 µM
O=C1CN2Cc3c(ccc(Cl)c3Cl)NC2=N1 [Anagrelide hydrochloride]	> 46 µM
O=C([O][Na])C(Cl)Cl [DCA]	> 46 µM

Results, then the molecule that gave them:

IC50 of cell viability	Structure (SMILES)
> 46 µM	COc1ccc(Cl)cc1C(=O)NCCc1ccc([S+](=O)([O-])NC(=O)NC2CCCCC2)cc1 [GLYBURIDE]
> 46 µM	CCCCCCCCCCCCCCCCCCCCCCO [DOCOSANOL]
> 46 µM	CC(CCc1ccc2c(c1)OCO2)NN (centres undefined) [SAFRAZINE HYDROCHLORIDE]
> 46 µM	C=CC1CN2CCC1CC2[C@@H](O)c1ccnc2ccc(OC)cc12 (some centres undefined) [QUINIDINE GLUCONATE]
> 46 µM	O=C1OC2(c3ccccc31)c1cc(I)c(O)c(I)c1Oc1c2cc(I)c(O)c1I [Erythrosin B]
> 46 µM	O[C@@H]([C@H](O)[C@H](O)CBr)[C@H](O)CBr [MITOBRONITOL]
> 46 µM	C[C@@]12CC[C@H]\3[C@@H](CC\C4=C3CCC(=O)C4)[C@H]1CC[C@]2(O)C#C [Norethynodrel]
> 46 µM	Nc1ccc(C(=O)O)cc1 [p-Amino benzoic acid]
> 46 µM	CC(C)(C)NCC(O)c1ccc(O)c(CO)c1 (centres undefined) [SALBUTAMOL]
> 46 µM	CC(C)(C)NCC(O)COc1ccc(NC(=O)NC2CCCCC2)cc1 (centres undefined) [TALINOLOLUM]
> 46 µM	NCCCCC(NC(=O)C1CCCN1C(=O)C1CSSCC(N)C(=O)NC(Cc2ccc(O)cc2)C(=O)NC(Cc2ccccc2)C(=O)NC(CCC(N)=O)C(=O)NC(CC(N)=O)C(=O)N1)C(=O)NCC(N)=O (centres undefined) [Lypressin]
> 46 µM	Nc1c(NC/C=C\COc2cc(CN3CCCCC3)ccn2)c(=O)c1=O [PIBUTIDINE HYDROCHLORIDE]
> 46 µM	CC[C@@H]1/C=C(\C)C[C@H](C)C[C@H](OC)[C@H]2O[C@@](O)(C(=O)C(=O)N3CCCC[C@H]3C(=O)O[C@H](/C(C)=C/[C@@H]3CC[C@H](Cl)[C@H](OC)C3)[C@H](C)[C@@H](O)CC1=O)[C@H](C)C[C@@H]2OC [PIMECROLIMUS]
> 46 µM	[O-][n+]1cccc(CO)c1 [Mepiroxol]
> 46 µM	O=C(Oc1ccccc1)c1cccc(C(=O)Oc2ccccc2)c1 [Diphenyl isophthalate]
> 46 µM	CC1(C)OC(=O)NC1=O [DIMETHADIONE]
> 46 µM	CC1=C(NNC(=O)C1)C2=CC=C(N\N=C(\C#N)C#N)C=C2 [SIMENDANUM]
> 46 µM	CC(=O)CC/C=C(\C)CC/C=C(/C)CC/C=C(\C)CCC=C(C)C [TEPRENONE]
> 46 µM	N[S+](=O)([O-])c1cc2c(cc1C(F)(F)F)NCN[S+]2(=O)[O-] [Hydroflumethiazide]
> 46 µM	CC(CN(C)C)CN1c2ccccc2Sc2ccc(C(F)(F)F)cc21 (centres undefined) [TRIFLUOMEPRAZINE MALEATE]
> 46 µM	CN(C)CCC=C1C2=C(C=CC=C2)\C=C/C3=C1C=CC=C3 [Flexeril]
> 46 µM	CC(C)C1CCC(C(=O)NC(Cc2ccccc2)C(=O)O)CC1 (centres undefined) [NATEGLINIDE]
